# Experimental data from patent US20220105192A1, “COMPOSITION, METHOD AND USE THEREOF” (RYBOQUIN COMPANY LTD, priority 2019, published 2022).
# Assays:
# ITCH mRNA [1] = assay: ITCH mRNA knockdown by qPCR after LipofectAMINE 2000 transfection, Kelly cells; format: cell-based
# Protocol: (§1) Transfection with LipofectAMINE 2000: one day before transfection, cells were plated at 8×10^4 cells per well for 24-well plate or 1.5×10^5 cells per well for 6-well plate in culture medium. On the day of transfection, LipofectAMINE 2000 (Thermal Fisher) or ITCH/Irrelevant siRNA (Eurogentec) was pre-diluted in OptiMEM (Thermal Fisher) with various concentrations and mixed to form complexes at room temperature (RT) for 25 min before adding to cells. mRNAs or protein lysates were collected 72 hours after transfection for further analysis.
# (§2) Real-time PCR: cDNA from each mRNA sample was synthesized using superscript III first strand synthesis kit (Thermal Fisher). To determine the ITCH expression, real time PCR was performed using SYBR-green qPCR kit (Eurogentec), using beta-actin or SDHA (sequence details as above) as endogenous control. The qPCR was run using either StepOne plus qPCR machine (Thermal Fisher) or CFX96 qPCR system (Bio-Rad). Results were analysed using their corresponding software.
# (§3) To determine ITCH silencing in neuroblastoma cells in vitro, neuroblastoma cells were transfected with ITCH siRNA, using LipofectAMINE 2000 as the transfection reagent. Cells were transfected with either, a) ITCH siRNA (6.25 nM to 100 nM) using 2 μl/well LipofectAMINE 2000 or b) Different amounts of LipofectAMINE2000 (0.5 μl/well, 1 μl/well and 2 μl/well) with 100 nM ITCH siRNA for 4 hours in OptiMEM, and then change into complete medium for a further 72 hours.
# (§4) The ITCH mRNA levels were determined by qPCR, and cells transfected with irrelevant siRNA were used as the control.
# Itch protein [2] = assay: Western blot of Itch protein after siRNA transfection, Kelly cells; format: cell-based
# Protocol: as §1
# […] 100 μl of lysis buffer was added to each well of the 6-well plate, and left on ice for 10 minutes. Samples were collected and boiled for 3 minutes and then centrifuged at 14,000 g for 10 minutes at 4° C. The supernatants were stored at −80° C. until needed. 30 μl/well of each sample were loaded onto NuPAGE Novex 10% bis-Tris Gel, and run at a constant voltage of 150V for 1 hour, before being transferred to a nitrocellulose membrane at 300 mA for 2 hours. The membrane was then blocked with Odyssey block solution (LI-COR Biosciences) for 60 min, incubated by primary antibodies of mouse anti-ITCH antibody (1:2000, BD) or rabbit anti-TP73 (1:1000, Generon), and mouse anti-beta actin (1:5000, Sigma) overnight at 4° C. […]
# Itch protein [3] = assay: Western blot of Itch protein after siRNA transfection, BE2 cells; format: cell-based; settings: 72 hours after transfection, in comparison to irrelevant siRNA treated cells
# Protocol: as §1
# Western blot: 72 hours after transfection, protein was extracted in RIPA (Radio-Immunoprecipitation Assay) lysis buffer (Sigma) containing a complete protease inhibitor cocktail (1:100, Roche). 100 μl of lysis buffer was added to each well of the 6-well plate, and left on ice for 10 minutes. Samples were collected and boiled for 3 minutes and then centrifuged at 14,000 g for 10 minutes at 4° C. The supernatants were stored at −80° C. until needed. 30 μl/well of each sample were loaded onto NuPAGE Novex 10% bis-Tris Gel, and run at a constant voltage of 150V for 1 hour, before being transferred to a nitrocellulose membrane at 300 mA for 2 hours. […]
# TP73 = assay: Western blot of TP73 after ITCH siRNA transfection, Kelly cells; format: cell-based; settings: LipofectAMINE2000, samples at 1, 2, 3, 6 days and D6+3, western blot normalized to β-actin
# Protocol: […] 100 μl of lysis buffer was added to each well of the 6-well plate, and left on ice for 10 minutes. Samples were collected and boiled for 3 minutes and then centrifuged at 14,000 g for 10 minutes at 4° C. The supernatants were stored at −80° C. until needed. 30 μl/well of each sample were loaded onto NuPAGE Novex 10% bis-Tris Gel, and run at a constant voltage of 150V for 1 hour, before being transferred to a nitrocellulose membrane at 300 mA for 2 hours. The membrane was then blocked with Odyssey block solution (LI-COR Biosciences) for 60 min, incubated by primary antibodies of mouse anti-ITCH antibody (1:2000, BD) or rabbit anti-TP73 (1:1000, Generon), and mouse anti-beta actin (1:5000, Sigma) overnight at 4° C. After washing with PBS (phosphate-buffered saline) containing 1% Tween 20 (PBST) for 15 min×3 times at room temperature, the membrane was then incubated with IRDye 680 RD goat anti-rabbit and IRDye 800 CW goat anti-mouse 2nd antibodies (1:15000, LI-COR Biosciences) for 1 hour at RT. The image of the blotted membrane was acquired by Odyssey Clx infrared imaging system (LI-COR Biosciences) using image studio software.
# Kelly cells were transfected with ITCH siRNA or irrelevant siRNA in 6-well plates using LipofectAMINE2000. The protein samples were collected 1 day, 2 days, 3 days and 6 days after transfection. […]
# ITCH mRNA [4] = assay: In vivo silencing of ITCH in neuroblastoma (Kelly) xenograft tumours, real time RT-PCR; design: species or system mouse; settings: for Differences in % (ITCH SiRNA vs Irre SiRNA), relative ITCH expression <0.8 / Differences in % (ITCH SiRNA vs Irre SiRNA), relative ITCH expression <1 / % of samples with relative ITCH expression <0.8 / % of samples with relative ITCH expression <1 / Number of samples with relative ITCH expression <0.8 / Number of samples with relative ITCH expression <1: 24 h after injection; for % of samples with relative ITCH expression <0.8 / % of samples with relative ITCH expression <1 / Number of samples with relative ITCH expression <0.8 / Number of samples with relative ITCH expression <1: n number 24; for more samples expressing lower level of ITCH (relative expression <0.8) in treated group than in control group: 48 h after delivery; for ITCH silencing: 48 hours after delivery, vs irrelevant siRNA group; for Relative expression of ITCH/SDHA (mean ± SEM) / Relative expression of ITCH/β-actin (mean ± SEM): xenograft tumours
# Protocol: Establishment of the xenograft neuroblastoma model and in vivo transfection of ITCH siRNA with nanoparticles: 6-8 week old NSG-SCID female mice were ordered from Charles River laboratories. All procedures were approved by UCL animal care policies and were carried out under Home Office Licenses issued in accordance with the United Kingdom Animals (Scientific Procedures) Act 1986 (UK). The mice were acclimatized for 1-2 weeks before engrafting the neuroblastoma cells. On the day of injection, Kelly cells were trypsinized and re-suspended in medium at a density of 3×10^6 cells/100 μl. 100 μl cell suspension was mixed with equal volume of Matrigel (BD biosciences) on ice and immediately injected subcutaneously into the left or right upper thigh of the mouse. The body weight and the tumour size/volume of each mouse were monitored from D4 after engraftment. The in vivo administration of the ITCH siRNA nanoparticles was performed on mouse once its tumour grew bigger than 5mm at both dimensions. The nanoparticle formulation for in vivo study was also prepared at the 1:4:1 ratio, using cationic lipid AT-1, which contains 1% PEG and the peptide used was ME27. 1 mg siRNA/kg of nanoparticles was injected intravenously into each mouse. The tumour was harvested either 24 hours or 48 hours after administration, and processed for qPCR analysis.
# Real time RT-PCR analysis of tumour samples: each tumour was divided into 4 parts and mRNA was extracted respectively for real time RT-PCR analysis. iTaq Universal SYBR Green One-Step Kit was used in this assay. For normalization, 2 separate housekeeping genes, beta-actin and SDHA (Fisher M, 2005) were included. As there were in total 104 samples to test, it was not possible to fit all samples in a single 96 well testing plate. Therefore, sample 05 c was chosen, from an untreated tumour sample as a common control. This sample was included in every plate that was run and all the data from each plate were calculated relative to this sample (the ddCT value of each sample was calculated by subtracting the deICT value of sample 05 c).
# ITCH mRNA [5] = assay: ITCH mRNA knockdown by qPCR after LipofectAMINE 2000 transfection, BE2 cells; format: cell-based
# Protocol: as §1, §2, §3, §4
# Kelly cells = assay: SubG1 analysis (apoptosis) of transfected Kelly cells after 4 Gy irradiation; format: cell-based; settings: 4 Gy irradiation three days after transfection, analysed one day after irradiation
# Protocol: SubG1 analysis: to examine the effects of ITCH silencing on the apoptosis of neuroblastoma cells upon irradiation, Kelly cells were firstly transfected with ITCH siRNA as described above, using irrelevant siRNA as control. Cells were exposed to 4 Gy irradiation three days after transfection. 24 hours after irradiation, cells were trypsinized and centrifuged at 2000 rpm, for 5 min. Pre-cold 70% ethanol was then added dropwise to cell pellet, and the cells were fixed at 4° C. for 30 min before centrifuge again and the cell pellet washed with citric buffer twice before adding 50 μl RNase followed by 50 μg/ml PI (propidium iodide) for 5 min. The cells were then pelleted again at 2000 rpm for 5 min, and re-suspended in 0.5 ml PBS for FACS (fluorescent associated cell sorting) analysis. The cell cycle profile was acquired using FACS calibur machine and the percentage of cells in the SubG1 region was calculated using Flowjo software.
# Kelly cells were transfected with ITCH and irrelevant siRNA, respectively. Three days later, cells were subjected to 4 Gy irradiation. The subG1 population was analysed one day after the irradiation. […] This difference was statistically significant between the 2 groups (p<0.001, Mann-Whitney test).
# [6] = 6.25 nM siRNA, 2 μl/well LipofectAMINE 2000, qPCR, control irrelevant siRNA
# [7] = 12.5 nM siRNA, 2 μl/well LipofectAMINE 2000, qPCR, control irrelevant siRNA
# [8] = 25 nM siRNA, 2 μl/well LipofectAMINE 2000, qPCR, control irrelevant siRNA
# [9] = 50 nM siRNA, 2 μl/well LipofectAMINE 2000, qPCR, control irrelevant siRNA
# [10] = 100 nM siRNA, 2 μl/well LipofectAMINE 2000, qPCR, control irrelevant siRNA
# [11] = 24 hours after i.v. 1 mg siRNA/kg nanoparticles (AT-1, ME27)
# [12] = 48 hours after i.v. 1 mg siRNA/kg nanoparticles (AT-1, ME27)
substance,measurement,setting,value
"ITCH siRNA: siRNA, sense strand 5′-GCUGUUGUUUGCCAUAGAA55-3′ (SEQ ID NO 003), antisense strand 5′-UUCUAUGGCAAACAACAGC55-3′ (SEQ ID NO 004) (Eurogentec) (listed as RNA, chemistry not given here)",ITCH knockdown,ITCH mRNA [1]; [6],64.7%
same,ITCH knockdown,ITCH mRNA [1]; [7],77.8%
same,ITCH knockdown,ITCH mRNA [1]; [8],73.5%
same,ITCH knockdown,ITCH mRNA [1]; [9],89%
same,ITCH knockdown,"ITCH mRNA [1]; 100nM SiRNA, 0.5 μl/well LipofectAMINE 2000",85%
same,ITCH knockdown,"ITCH mRNA [1]; 100nM SiRNA, 1 μl/well LipofectAMINE 2000",83%
same,ITCH knockdown,"ITCH mRNA [1]; 100nM SiRNA, 2 μl/well LipofectAMINE 2000 (LipofectAMINE amount series)",78.8%
same,ITCH knockdown,ITCH mRNA [1]; [10],78%
same,remaining Itch protein level,"Itch protein [2]; 72 hours after transfection, western blot, in comparison to non-transfected cells",31.6%
same,"Itch protein level, time course","Itch protein [2]; LipofectAMINE2000, 1 day to 6 days after the 1st transfection, vs irrelevant siRNA, normalized to β-actin",downregulation of Itch protein was observed
same,changes in Itch protein level,Itch protein [3],no changes
same,"TP73 protein level, time course",TP73,upregulation was only detected at day 3 samples and day 6 samples which had been transfected twice
same,"Differences in % (ITCH SiRNA vs Irre SiRNA), relative ITCH expression <0.8",ITCH mRNA [4]; normalized to SDHA,12.5%
same,"Differences in % (ITCH SiRNA vs Irre SiRNA), relative ITCH expression <1",ITCH mRNA [4]; normalized to SDHA,4.17%
same,% of samples with relative ITCH expression <0.8,ITCH mRNA [4]; normalized to SDHA,25%
same,% of samples with relative ITCH expression <1,ITCH mRNA [4]; normalized to SDHA,41.67%
same,Number of samples with relative ITCH expression <0.8,ITCH mRNA [4]; normalized to SDHA,6
same,Number of samples with relative ITCH expression <1,ITCH mRNA [4]; normalized to SDHA,10
same,"Differences in % (ITCH SiRNA vs Irre SiRNA), relative ITCH expression <0.8",ITCH mRNA [4]; normalized to β-actin,−16.67%
same,"Differences in % (ITCH SiRNA vs Irre SiRNA), relative ITCH expression <1",ITCH mRNA [4]; normalized to β-actin,8.33%
same,% of samples with relative ITCH expression <0.8,ITCH mRNA [4]; normalized to β-actin,16.67%
same,% of samples with relative ITCH expression <1,ITCH mRNA [4]; normalized to β-actin,45.83%
same,Number of samples with relative ITCH expression <0.8,ITCH mRNA [4]; normalized to β-actin,4
same,Number of samples with relative ITCH expression <1,ITCH mRNA [4]; normalized to β-actin,11
same,more samples expressing lower level of ITCH (relative expression <0.8) in treated group than in control group,ITCH mRNA [4]; normalized to SDHA,35%
same,more samples expressing lower level of ITCH (relative expression <0.8) in treated group than in control group,ITCH mRNA [4]; normalized to β-actin,27.14%
same,ITCH silencing,ITCH mRNA [4]; normalized to SDHA,14.6%
same,ITCH silencing,ITCH mRNA [4]; normalized to β-actin,19.15%
same,ITCH silencing (summary),"ITCH mRNA [4]; neuroblastoma xenograft model, nanoparticles, 48 hours after transfection",15-20%
same,Relative expression of ITCH/SDHA (mean ± SEM),ITCH mRNA [4]; [11],1.18 ± 0.10
same,Relative expression of ITCH/β-actin (mean ± SEM),ITCH mRNA [4]; [11],1.05 ± 0.06
same,Relative expression of ITCH/SDHA (mean ± SEM),ITCH mRNA [4]; [12],0.82 ± 0.05
same,Relative expression of ITCH/β-actin (mean ± SEM),ITCH mRNA [4]; [12],0.76 ± 0.05
same,ITCH knockdown,ITCH mRNA [5]; [6],-39%
same,ITCH knockdown,ITCH mRNA [5]; [7],54%
same,ITCH knockdown,ITCH mRNA [5]; [8],48.7%
same,ITCH knockdown,ITCH mRNA [5]; [9],71.8%
same,ITCH knockdown,"ITCH mRNA [5]; 100 nM siRNA, 0.5 μl/well LipofectAMINE 2000",88.7%
same,ITCH knockdown,"ITCH mRNA [5]; 100 nM siRNA, 1 μl/well LipofectAMINE 2000",49%
same,ITCH knockdown,"ITCH mRNA [5]; 100 nM siRNA, 2 μl/well LipofectAMINE 2000 (LipofectAMINE amount series)",34%
same,ITCH knockdown,ITCH mRNA [5]; [10],38.2%
same,percentage of SubG1 (apoptotic) cells,Kelly cells,8.36%
